# Measurements taken from patent publication US20070190029A1, “Listeria-induced immunorecruitment and activation, and methods of use thereof” (Cerus Corporation, priority 2005, published 2007).
# How the values were obtained:
# CT26 tumor cells [1] = assay: Long-term adaptive immunity: subcutaneous CT26 re-challenge, Elispot, tumor volume (FIGS. 15, 16); assay type: in vivo, mice
# Description: Mice were initially inoculated (t=0 days) with CT26 tumor cells by way of the hemispleen model, and then treated with:
# (1) No treatment with any therapeutic agent (“naive mice”);
# (2) Listeria ΔactAΔinlB (3 cycles of Listeria ΔactAΔinlB beginning at t=3 days after inoculation with the CT26 tumor cells. Administration of Listeria was once weekly for three weeks. The Listeria ΔactAΔinlB had not been engineered to express any tumor antigen;
# (3) GM-CSF vaccine with Listeria ΔactAΔinlB (1 injection of Listeria ΔactAΔinlB at t=6 days). Administration of the GM-CSF vaccine was started three days after injecting the tumor cells in the hemispleen, that is, on days 3, 6, and 10; or
# At t=100 days (shortly before the re-challenge) and at t=107 days (post re-challenge), surviving mice in each group were assessed for long-term immunity (Elispot assays) to the immunodominant antigen of the CT26 cells (AH1 antigen). The first Elispot assay (pre re-challenge) served as a baseline assay for use in assessing adaptive immune response. The second Elispot assay (107 days; post re-challenge) was used to assess adaptive immune response. At t=102 days, all mice were inoculated with CT26 tumor cells by way of a subcutaneous re-challenge. […]
# Tumor volume was assessed in the days following the CT26 tumor cell re-challenge (FIG. 16). […] The dimensions of these tumors were measured topically.
# CT26 tumor cells [2] = assay: Survival of mice with CT26 hepatic tumors (hemispleen injection model) after attenuated Listeria, with or without CTX; assay type: in vivo, BALB/c mice; settings: FIG. 1D
# Description: Hemispleen injections were as follows. BALB/c mice were anaesthetized and the spleen exposed. The spleen was divided into two hemispleens, leaving the vascular pedicles intact. Using a 27 gauge needle, about 0.1 million viable CT26 cells in 0.4 ml HBSS buffer were injected into the spleen, thus allowing cells to flow to the liver. The vascular pedicle draining the cancer-contaminated hemispleen was ligated with a clip, and the CT26-contaminated hemispleen was excised, leaving a functional hemispleen free of tumor cells.
# Hepatic tumors were induced in mice as follows. CT26 tumor cells were administered to all mice on day zero (t=0 days) to initiate hepatic tumor formation.
# The following concerns the number of doses of Listeria given to the mice. “1×” means that the indicated Listeria strains were administered only at t=3 days post tumor implant (only one dose). “3×” means that the indicated Listeria strains were administered at t=3 days, 6 days, and 9 days. “5×” means that the indicated Listeria strains were administered at t=3 days, 6 days, 9 days, 12 days, and 15 days. The number of administered Listeria ΔactA cells was about 1×10^7 colony forming units (CFU) while the number of Listeria ΔactAΔinlB given was about 2×10^7 CFU (FIG. 1A). […]
# serum cytokines = assay: Cytokine concentrations in mouse serum after administering Listeria, poly(I:C), or CpG (Table 7); assay type: in vivo
# Description: Cytokine levels were measured in serum, where the serum was from blood harvested from mice at various times after administering Listeria or a toll-like receptor (TLR) agonist. The treatment groups were (1) Salt water (HBSS) treatment only (0.2 ml); (2) L. monocytogenes ΔactAΔinlB (1×10^7 bacteria); (3) L. monocytogenes Δhly (deleted in the gene encoding listeriolysin) (3×10^8 bacteria); (4) L. monocytogenes killed but metabolically active (KBMA) (3×10^8 bacteria) (see, e.g. Brockstedt, et al. (2005) Nat. Medicine 11:853-860); (5) heat killed L. monocytogenes ΔactAΔinlB (3×10^8 bacteria); (6) poly(I:C) (0.1 mg); or (7) CpG (0.1 mg). Peripheral blood was withdrawn at various times, and assessed for cytokine concentration (Mouse Cytokine/Chemokine LINCOplex® Kit Catalog # MCYTO-70K; Linco, St. Charles, Mo.; or BD® Cytometric Bead Array, San Jose, Calif.). CpG was CpG ODN 1826, purchased through Invivogen. Cytokine levels were measured on samples withdrawn at 2, 4, 8, 12, and 24 hours after administration of bacteria or TLR agonist.
# The cytokines measured included granulocyte-colony stimulating factor (G-CSF); interferon-gamma (IFN-gamma); interleukin-1alpha (IL-1alpha); interleukin-6 (IL-6); interleukin-10 (IL-10); interleukin-12p70 (IL-12p70); interleukin-13 (IL-13); IP-10; KC (mouse ortholog of IL-8); MCP-1; MIP-1α; and TNF.
molecule,measurement,setting,value
"O=P1(N(CCCl)CCCl)NCCCO1 (stereo not drawn) [CTX, cyclophosphamide]",Elispot response to AH1 after CT26 re-challenge,"CT26 tumor cells [1]; FIG. 15, t=107 days",moderate
same,mice tumor free following the re-challenge,CT26 tumor cells [1]; subcutaneous re-challenge with 2×10^5 CT26 cells at t=102 days,about 50%
same,survival (figure legend),"CT26 tumor cells [2]; CTX at t=4 days, Listeria from day 5, 6 or 7",some increase in survival
same,survival,"CT26 tumor cells [2]; CTX only, 50 mg/kg i.p. day 4, t=50 days",about 60%
Poly (I:C),IFN-gamma concentration in mouse serum,serum cytokines; 4-8 h (plateau),(25-30 pg/ml)
same,G-CSF concentration in mouse serum,serum cytokines; 8-12 h (peak),"(6,000 pg/ml),"
same,IL-1alpha concentration in mouse serum,serum cytokines; 8-12 h (plateau),(170-300 pg/ml)
same,G-CSF concentration in mouse serum,serum cytokines; 2 h,to 1200 pg/ml
same,IFN-gamma concentration in mouse serum,serum cytokines; 2 h,to 15 pg/ml
same,IL-6 concentration in mouse serum,serum cytokines; 2 h,(7500 pg/ml)
same,IL-12p70 concentration in mouse serum,serum cytokines; 2 h,300 at 2 h pg/ml
same,IP-10 concentration in mouse serum,serum cytokines; 2 h,to 1400 pg/ml
same,KC concentration in mouse serum,serum cytokines; 2 h,to 900 pg/ml
same,MCP-1 concentration in mouse serum,serum cytokines; 2 h,"to 29,000 pg/ml"
same,MIP-1a concentration in mouse serum,serum cytokines; 2 h,to 1800 pg/ml
same,TNF concentration in mouse serum,serum cytokines; 2 h,to 1500 pg/ml
same,IL-13 concentration in mouse serum,serum cytokines; 2 h-24 h,Basal
same,IL-6 concentration in mouse serum,serum cytokines; 4 h,(5000 pg/ml
same,IP-10 concentration in mouse serum,serum cytokines; 4 h (peak),"4 h (2100 pg/ml),"
same,IL-10 concentration in mouse serum,"serum cytokines; 4 h, 12 h, 24 h",8 h. Basal
same,"IL-13 concentration in mouse serum, sporadic spikes in some mice","serum cytokines; 4 h, 12 h, 24 h",about 200 pg/ml)
same,KC concentration in mouse serum,serum cytokines; 4 h-24 h,near basal
same,MCP-1 concentration in mouse serum,serum cytokines; 8 h,"(10,000 pg/ml"
same,IL-6 concentration in mouse serum,serum cytokines; 12 h,near basal
same,MCP-1 concentration in mouse serum,serum cytokines; 12 h and 24 h,(1000 pg/ml)
same,IP-10 concentration in mouse serum,serum cytokines; 24 h,drop (800 pg/ml
same,IL-10 concentration in mouse serum,serum cytokines; sporadic spikes found at 2 h and at 8 h,of 14-80 pg/ml
